According to patent US20230024302A1, “2,3,5-TRISUBSTITUTED PYRAZOLO[1,5-A]PYRIMIDINE COMPOUNDS” (Arcus Biosciences, Inc., priority 2019, published 2023):

Assays:
PI3Kγ (p120γ) = molecular target: T1, PI3Kγ (p120γ) (Homo sapiens, UniProt P48736); test: Inhibition of PI3K kinase activity (ADP Glo), PI3Kγ; details: Table 1, p120γ, read-out: biochemical potency (PI3Kγ IC50)
T1 construct: purchased Promega V1761
In short: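 IC50 values come from a 4-parameter nonlinear fit of ADP-Glo luminescence, which measures ADP produced as PIP2 is phosphorylated to PIP3. The p120γ enzyme (2× stock 8 nM) sat with compound 1 h at rt before substrate (2× stocks: 50 μM ATP, 0.1 mg/ml PIP2) was added. Phosphorylation then proceeded 60 min at rt.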

PI3Kγ = molecular target: T2, PI3Kγ (Homo sapiens, UniProt P48736); test: PI3Kγ cellular assay in THP-1 cells (AKT pS473 AlphaLISA); assay type: cell-based; details: Table 1, rhMCP-1 stimulated AKT pS473, read-out: cellular potency (PI3Kγ IC50)
T2 construct: host or cells: THP-1
T2 sequence (P48736 whole entry): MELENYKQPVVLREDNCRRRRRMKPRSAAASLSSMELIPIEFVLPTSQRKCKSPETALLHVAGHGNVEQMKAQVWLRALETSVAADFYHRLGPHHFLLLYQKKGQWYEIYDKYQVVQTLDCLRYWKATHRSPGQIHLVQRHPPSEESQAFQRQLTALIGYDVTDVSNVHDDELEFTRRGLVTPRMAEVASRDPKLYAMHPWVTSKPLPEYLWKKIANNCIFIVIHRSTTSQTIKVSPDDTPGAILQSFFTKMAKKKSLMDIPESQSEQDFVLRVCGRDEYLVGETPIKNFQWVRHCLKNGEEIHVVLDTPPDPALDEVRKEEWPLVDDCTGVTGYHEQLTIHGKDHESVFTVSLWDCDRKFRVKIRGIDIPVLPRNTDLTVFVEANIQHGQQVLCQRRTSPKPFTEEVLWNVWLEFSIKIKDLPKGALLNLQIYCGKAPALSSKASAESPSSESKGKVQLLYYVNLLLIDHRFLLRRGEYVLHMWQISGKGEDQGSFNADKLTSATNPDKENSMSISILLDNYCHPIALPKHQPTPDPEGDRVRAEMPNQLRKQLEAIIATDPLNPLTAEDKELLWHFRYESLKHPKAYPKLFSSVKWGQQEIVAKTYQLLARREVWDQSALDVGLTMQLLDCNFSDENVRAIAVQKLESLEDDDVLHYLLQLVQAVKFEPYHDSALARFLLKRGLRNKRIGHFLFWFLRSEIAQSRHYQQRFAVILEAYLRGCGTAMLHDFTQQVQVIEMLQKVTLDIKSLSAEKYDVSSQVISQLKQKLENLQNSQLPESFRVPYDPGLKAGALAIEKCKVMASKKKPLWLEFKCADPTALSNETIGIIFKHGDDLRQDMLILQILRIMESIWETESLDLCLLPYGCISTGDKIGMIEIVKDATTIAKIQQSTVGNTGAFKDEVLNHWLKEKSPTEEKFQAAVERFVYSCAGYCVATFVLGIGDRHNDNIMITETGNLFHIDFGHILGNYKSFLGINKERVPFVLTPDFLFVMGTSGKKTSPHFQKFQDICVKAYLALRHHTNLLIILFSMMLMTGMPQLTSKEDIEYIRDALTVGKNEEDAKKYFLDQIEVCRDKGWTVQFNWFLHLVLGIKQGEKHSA
In short: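 Endogenous AKT S473 phosphorylation, detected by AlphaLISA in lysates, serves as the PI3Kγ activity read-out in stimulated, serum-starved THP-1 cells (1.8×10^5/well).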

T1 sequence (P48736 whole entry): as above

SMILES | IC50 (PI3Kγ (p120γ)) [µM] | IC50 (PI3Kγ) [µM]
C[C@@H](C1CC1)N1Cc2cc(-c3ccn4nc(N)c(C(=O)NC5(C#N)COC5)c4n3)cc(NS(C)(=O)=O)c2C1=O [Example 80, 2-Amino-N-(3-cyanooxetan-3-yl)-5-{2-[(1S)-1-cyclopropylethyl]-7-methanesulfonamido-1-oxo-2,3-dihydro-1H-isoindol-5-yl}pyrazolo[1,5-a]pyrimidine-3-carboxamide] | < 0.1 | < 0.1
C[C@@H](C1CC1)N1Cc2cc(-c3ccn4nc(N)c(C(=O)NC5(C#N)CCC5)c4n3)cc(NS(C)(=O)=O)c2C1=O [Example 81, 2-Amino-N-(1-cyanocyclobutyl)-5-{2-[(1S)-1-cyclopropylethyl]-7-methanesulfonamido-1-oxo-2,3-dihydro-1H-isoindol-5-yl}pyrazolo[1,5-a]pyrimidine-3-carboxamide] | < 0.1 | < 0.1
C[C@@H](C1CC1)N1Cc2cc(-c3ccn4nc(N)c(C(=O)N[C@H]5C[C@](C)(O)C5)c4n3)cc(NS(C)(=O)=O)c2C1=O [Example 82, 2-Amino-5-{2-[(1S)-1-cyclopropylethyl]-7-methanesulfonamido-1-oxo-2,3-dihydro-1H-isoindol-5-yl}-N-[trans-3-hydroxy-3-methylcyclobutyl]pyrazolo[1,5-a]pyrimidine-3-carboxamide] | < 0.1 | < 0.1
C[C@@H](C1CC1)N1Cc2cc(-c3ccn4nc(N)c(C(=O)N[C@]5(C)C[C@@H](O)C5)c4n3)cc(NS(C)(=O)=O)c2C1=O [Example 83, 2-Amino-5-{2-[(1S)-1-cyclopropylethyl]-7-methanesulfonamido-1-oxo-2,3-dihydro-1H-isoindol-5-yl}-N-[trans-3-hydroxy-1-methylcyclobutyl]pyrazolo[1,5-a]pyrimidine-3-carboxamide] | < 0.1 | < 0.1
CO[C@H]1C[C@H](NC(=O)c2c(N)nn3ccc(-c4cc5c(c(NS(C)(=O)=O)c4)C(=O)N([C@@H](C)C4CC4)C5)nc23)C1 [Example 84, 2-Amino-5-{2-[(1S)-1-cyclopropylethyl]-7-methanesulfonamido-1-oxo-2,3-dihydro-1H-isoindol-5-yl}-N-[trans-3-methoxycyclobutyl]pyrazolo[1,5-a]pyrimidine-3-carboxamide] | < 0.1 | < 0.1
C[C@@H](C1CC1)N1Cc2cc(-c3ccn4nc(N)c(C(=O)NC[C@H]5C[C@H](O)C5)c4n3)cc(NS(C)(=O)=O)c2C1=O [Example 85, 2-Amino-5-{2-[(1S)-1-cyclopropylethyl]-7-methanesulfonamido-1-oxo-2,3-dihydro-1H-isoindol-5-yl}-N-{[trans-3-hydroxycyclobutyl]methyl}pyrazolo[1,5-a]pyrimidine-3-carboxamide] | < 0.1 | < 0.1
C[C@@H](C1CC1)N1Cc2cc(-c3ccn4nc(N)c(C(=O)N[C@@H]5CC[C@@H](O)C5)c4n3)cc(NS(C)(=O)=O)c2C1=O [Example 86, 2-Amino-5-{2-[(1S)-1-cyclopropylethyl]-7-methanesulfonamido-1-oxo-2,3-dihydro-1H-isoindol-5-yl}-N-[(1R,3R)-3-hydroxycyclopentyl]pyrazolo[1,5-a]pyrimidine-3-carboxamide] | < 0.1 | < 0.1
C[C@@H](C1CC1)N1Cc2cc(-c3ccn4nc(N)c(C(=O)NC5CC5)c4n3)cc(NS(C)(=O)=O)c2C1=O [Example 87, 2-Amino-N-cyclopropyl-5-{2-[(1S)-1-cyclopropylethyl]-7-methanesulfonamido-1-oxo-2,3-dihydro-1H-isoindol-5-yl}pyrazolo[1,5-a]pyrimidine-3-carboxamide] | < 0.1 | < 0.1
C[C@@H](C1CC1)N1Cc2cc(-c3ccn4nc(N)c(C(=O)N[C@@H]5COC[C@H]5O)c4n3)cc(NS(C)(=O)=O)c2C1=O [Example 88, 2-Amino-5-{2-[(1S)-1-cyclopropylethyl]-7-methanesulfonamido-1-oxo-2,3-dihydro-1H-isoindol-5-yl}-N-[(3R,4S)-4-hydroxyoxolan-3-yl]pyrazolo[1,5-a]pyrimidine-3-carboxamide] | < 0.1 | < 0.1
C[C@@H](C1CC1)N1Cc2cc(-c3ccn4nc(N)c(C(=O)N[C@H]5CC[C@@](C)(O)CC5)c4n3)cc(NS(C)(=O)=O)c2C1=O [Example 89, 2-Amino-5-{2-[(1S)-1-cyclopropylethyl]-7-methanesulfonamido-1-oxo-2,3-dihydro-1H-isoindol-5-yl}-N-[cis-4-hydroxy-4-methylcyclohexyl]pyrazolo[1,5-a]pyrimidine-3-carboxamide] | < 0.1 | < 0.1
C[C@@H](C1CC1)N1Cc2cc(-c3ccn4nc(N)c(C(=O)N[C@H]5CC[C@](O)(C(F)(F)F)CC5)c4n3)cc(NS(C)(=O)=O)c2C1=O [Example 90, 2-Amino-5-{2-[(1S)-1-cyclopropylethyl]-7-methanesulfonamido-1-oxo-2,3-dihydro-1H-isoindol-5-yl}-N-[cis-4-hydroxy-4-(trifluoromethyl)cyclohexyl]pyrazolo[1,5-a]pyrimidine-3-carboxamide] | < 0.1 | < 0.1
C[C@@H](C1CC1)N1Cc2cc(-c3ccn4nc(N)c(C(=O)N[C@H]5CC[C@H](C(C)(C)O)CC5)c4n3)cc(NS(C)(=O)=O)c2C1=O [Example 91, 2-Amino-5-{2-[(1S)-1-cyclopropylethyl]-7-methanesulfonamido-1-oxo-2,3-dihydro-1H-isoindol-5-yl}-N-[trans-4-(2-hydroxypropan-2-yl)cyclohexyl]pyrazolo[1,5-a]pyrimidine-3-carboxamide] | < 0.1 | < 0.1
C[C@@H](C1CC1)N1Cc2cc(-c3ccn4nc(N)c(C(=O)N[C@H]5CC[C@H](C6(O)CC6)CC5)c4n3)cc(NS(C)(=O)=O)c2C1=O [Example 92, 2-Amino-5-{2-[(1S)-1-cyclopropylethyl]-7-methanesulfonamido-1-oxo-2,3-dihydro-1H-isoindol-5-yl}-N-[trans-4-(1-hydroxycyclopropyl)cyclohexyl]pyrazolo[1,5-a]pyrimidine-3-carboxamide] | < 0.1 | < 0.1
C[C@H](CO)NC(=O)c1c(N)nn2ccc(-c3cc4c(c(NS(C)(=O)=O)c3)C(=O)N([C@@H](C)C3CC3)C4)nc12 [Example 93, 2-Amino-5-{2-[(1S)-1-cyclopropylethyl]-7-methanesulfonamido-1-oxo-2,3-dihydro-1H-isoindol-5-yl}-N-[(2R)-1-hydroxypropan-2-yl]pyrazolo[1,5-a]pyrimidine-3-carboxamide] | < 0.1 | < 0.1
C[C@@H](C1CC1)N1Cc2cc(-c3ccn4nc(N)c(C(=O)NC(C)(C)CO)c4n3)cc(NS(C)(=O)=O)c2C1=O [Example 94, 2-Amino-5-{2-[(1S)-1-cyclopropylethyl]-7-methanesulfonamido-1-oxo-2,3-dihydro-1H-isoindol-5-yl}-N-(1-hydroxy-2-methylpropan-2-yl)pyrazolo[1,5-a]pyrimidine-3-carboxamide] | < 0.1 | < 0.1
C[C@@H](C1CC1)N1Cc2cc(-c3ccn4nc(N)c(C(=O)NCCC(C)(C)O)c4n3)cc(NS(C)(=O)=O)c2C1=O [Example 95, 2-Amino-5-{2-[(1S)-1-cyclopropylethyl]-7-methanesulfonamido-1-oxo-2,3-dihydro-1H-isoindol-5-yl}-N-(3-hydroxy-3-methylbutyl)pyrazolo[1,5-a]pyrimidine-3-carboxamide] | < 0.1 | < 0.1
